The record followed here is patent US9884818B2, “Sulphamoylpyrrolamide derivatives and the use thereof as medicaments for the treatment of hepatitis B” (Janssen Sciences Ireland UC, priority 2013, dated 2018).

A value given as a limit tells only on which side of the number the result lay.

Series [1] relates to HBV. The experiment in a line: Anti-HBV activity, HepG2.2.15 stable transfected cell line, HBV DNA from secreted virions by realtime PCR. Type of series: cell-based. The following applies: HepG2.2.15 cells, 6 days of treatment, HBV DNA from secreted virions, read-out: HepG2 2.15 EC50.
The test system of series [2] is HBV. The experiment in a line: Anti-HBV activity, HepG2.117 inducibly HBV producing cell line (Tet-off), intracellular HBV DNA by realtime PCR. Type of series: cell-based. The following applies: Hepatitis B virus, HepG2.117, 72 h, HepG2.117 cells, 3 days of treatment, intracellular HBV DNA; read-out: HepG2 117 EC50.
The nature of series [3]: Cytotoxicity in HepG2 cells, Resazurin viability assay. The following applies: human, HepG2 cells, HepG2 4 days CC50 (μM), incubated for 4 days, Resazurin assay. On the technique in general: Resazurin is reduced to fluorescent resorufin, in cell work by metabolically active cells.
[4] abbreviates: Hepatitis B virus, HepG2.2.15, 144 h.

As usually defined, the EC50 is the concentration giving half of the maximal effect. What is called CC50 is the concentration that lowers cell viability or growth by half. Low values mean greater toxicity to the cells, high ones lower toxicity to the cells. In the case of `CCC(C)(NS(=O)(=O)c1cc(C(=O)Nc2cc(F)c(F)c(Cl)c2)n(C)c1)C(F)(F)F` (single isomer, unassigned) [Compound 165a, N-(3-chloro-4,5-difluoro-phenyl)-1-methyl-4-[[1-methyl-1-(trifluoro-methyl)propyl]sulfamoyl]pyrrole-2-carboxamide], the concentration for a half-maximal effect (EC50) in series [1] (setting [4]) turned out to be 150 nM; in series [2] it was 40 nM. The same compound returned a CC50 at 4 days in series [3] of 9.3 µM.
Regarding `Cn1cc(S(=O)(=O)NC2CCC(F)(F)C2)cc1C(=O)Nc1cc(F)c(F)c(Cl)c1` (single isomer, unassigned) [Compound 166a, N-(3-Chloro-4,5-difluorophenyl)-4-[(3,3-difluorocyclopentyl)sulfamoyl]-1-methyl-1H-pyrrole-2-carboxamide], the EC50 in series [1] came out at 140 nM; in series [2], 100 nM. This compound registered a half-maximal cytotoxic concentration (CC50) at 4 days in series [3] of 17.9 µM.
With `CC(CC(F)(F)F)NS(=O)(=O)c1cc(C(=O)Nc2cc(F)c(F)c(Cl)c2)n(C)c1` (single isomer, unassigned) [Compound 169a, N-(3-Chloro-4,5-difluorophenyl)-1-methyl-4-[(3,3,3-trifluoro-1-methylpropyl)sulfamoyl]-1H-pyrrole-2-carboxamide], the concentration giving a half-maximal response (EC50) in series [1] turned out to be 140 nM; in series [2] it was 50 nM. Further, the CC50 at 4 days in series [3] turned out to be 16.1 µM.
For the compound `CC(NS(=O)(=O)c1cc(C(=O)Nc2ccc(F)c(C#N)c2)n(C)c1)C(F)F` (single isomer, unassigned) [Compound 200a, N-(3-Cyano-4-fluorophenyl)-4-{[2,2-difluoro-1-methylethyl]sulfamoyl}-1-methyl-1H-pyrrole-2-carboxamide], the figures for the half-maximal effective concentration (EC50) in series [1] (setting [4]) and in series [2] were 100 nM and 50 nM, respectively. Further, the 50% cytotoxic concentration (CC50) at 4 days in series [3] was > 25 µM.
Taken in the same sequence, the figures for `Cn1cc(S(=O)(=O)NC2(C(F)(F)F)CCOC2)cc1C(=O)Nc1ccc(F)c(C#N)c1` (single isomer, unassigned) [Compound 228a, N-(3-Cyano-4-fluorophenyl)-1-methyl-4-{[3-(trifluoromethyl)tetrahydrofuran-3-yl]sulfamoyl}-1H-pyrrole-2-carboxamide] were 30 nM, 30 nM and > 25 µM.
Regarding `Cn1cc(S(=O)(=O)NC2CCCC2(F)F)cc1C(=O)Nc1ccc(F)c(Cl)c1F` (single isomer, unassigned) [Compound 236a, N-(3-Chloro-2,4-difluorophenyl)-4-{[2,2-difluorocyclopentyl]sulfamoyl}-1-methyl-1H-pyrrole-2-carboxamide], the EC50 in series [1] was found to be 20 nM; in series [2] it was 50 nM. In addition, in series [3], the CC50 at 4 days is > 25 µM.
Take `Cc1cc(NC(=O)c2cc(S(=O)(=O)NC(C)C)c[nH]2)ccc1F` [Compound 1, N-(4-fluoro-3-methyl-phenyl)-4-(isopropylsulfamoyl)-1H-pyrrole-2-carboxamide]: the figures for the half-maximal effective concentration (EC50) in series [1] (setting [4]) and in series [2] were 420 nM and 3100 nM, respectively. The CC50 at 4 days in series [3] is > 25 µM.
As to `Cc1cc(NC(=O)c2cc(S(=O)(=O)NC(C)C)cn2C)ccc1F` [Compound 2, N-(4-fluoro-3-methyl-phenyl)-4-(isopropylsulfamoyl)-1-methyl-pyrrole-2-carboxamide], the concentration for a half-maximal effect (EC50) in series [1] (setting [4]) is 30 nM; in series [2], 60 nM. The CC50 at 4 days in series [3] is > 25 µM.
Consider `Cc1cc(NC(=O)c2cc(S(=O)(=O)N[C@H](C)CO)cn2C)ccc1F` [Compound 3, N-(4-fluoro-3-methyl-phenyl)-4-[[(1R)-2-hydroxy-1-methyl-ethyl]sulfamoyl]-1-methyl-pyrrole-2-carboxamide], for which the concentration for a half-maximal effect (EC50) in series [1] (setting [4]) worked out at 70 nM; in series [2], 100 nM. In addition, the CC50 at 4 days in series [3] is > 25 µM.
With `Cc1cc(NC(=O)c2cc(S(=O)(=O)N[C@H]3CCOC3)cn2C)ccc1F` [Compound 4, N-(4-fluoro-3-methyl-phenyl)-1-methyl-4-[[(3S)-tetrahydrofuran-3-yl]-sulfamoyl]pyrrole-2-carboxamide], the half-maximal effective concentration (EC50) in series [1] (setting [4]) came out at 100 nM; in series [2], 60 nM. The CC50 at 4 days in series [3] is > 25 µM.
As for `Cc1cc(NC(=O)c2cc(S(=O)(=O)NC3(C)COC3)cn2C)ccc1F` [Compound 5, N-(4-fluoro-3-methyl-phenyl)-1-methyl-4-[(3-methyloxetan-3-yl)-sulfamoyl]pyrrole-2-carboxamide], the values for the half-maximal effective concentration (EC50) in series [1] (setting [4]) and in series [2] were 30 nM and 20 nM, respectively. Also, the CC50 at 4 days in series [3] is > 25 µM.
Turning to `CC[C@@H](C)NS(=O)(=O)c1cc(C(=O)Nc2ccc(F)c(C)c2)n(C)c1` [Compound 6, N-(4-fluoro-3-methyl-phenyl)-1-methyl-4-[[(1R)-1-methylpropyl]-sulfamoyl]pyrrole-2-carboxamide], the EC50 in series [1] (setting [4]) and in series [2] was 20 nM in each case. Further, the 50% cytotoxic concentration (CC50) at 4 days in series [3] is > 25 µM.
In the case of `Cc1cc(NC(=O)c2cc(S(=O)(=O)NCC3(C)COC3)cn2C)ccc1F` [Compound 7, N-(4-fluoro-3-methyl-phenyl)-1-methyl-4-[(3-methyloxetan-3-yl)methylsulfamoyl]pyrrole-2-carboxamide], the figures for the EC50 in series [1] (setting [4]) and in series [2] were 120 nM and 100 nM, respectively. Besides, in series [3], the CC50 at 4 days is > 25 µM.
With `Cc1cc(NC(=O)c2cc(S(=O)(=O)N[C@@H](C)C(F)(F)F)cn2C)ccc1F` [Compound 8, N-(4-fluoro-3-methyl-phenyl)-1-methyl-4-[[(1S)-2,2,2-trifluoro-1-methyl-ethyl]sulfamoyl]pyrrole-2-carboxamide], the EC50 in series [1] (setting [4]) and in series [2] was 20 nM each time. For the same compound, the CC50 at 4 days in series [3] was > 25 µM.
As for `Cc1cc(NC(=O)c2cc(S(=O)(=O)N[C@H](C)C(F)(F)F)cn2C)ccc1F` [Compound 9, N-(4-fluoro-3-methyl-phenyl)-1-methyl-4-[[(1R)-2,2,2-trifluoro-1-methyl-ethyl]sulfamoyl]pyrrole-2-carboxamide], the concentration giving a half-maximal response (EC50) in series [1] (setting [4]) was found to be 10 nM; in series [2], 30 nM. Besides, the half-maximal cytotoxic concentration (CC50) at 4 days in series [3] was > 25 µM.
For `Cc1cc(NC(=O)c2cc(S(=O)(=O)NC3(CO)COC3)cn2C)ccc1F` [Compound 10, N-(4-fluoro-3-methyl-phenyl)-4-[[3-(hydroxymethyl)oxetan-3-yl]sulfamoyl]-1-methyl-pyrrole-2-carboxamide], the EC50 was 110 nM in series [1] (setting [4]) and 80 nM in series [2]. For the same compound, in series [3], the CC50 at 4 days is > 25 µM.
As for `Cc1cc(NC(=O)c2cc(S(=O)(=O)NC3(C)CCOC3)cn2C)ccc1F` (stereo not drawn) [Compound 11, N-(4-fluoro-3-methyl-phenyl)-1-methyl-4-[(3-methyltetrahydrofuran-3-yl)sulfamoyl]pyrrole-2-carboxamide], the EC50 came to 30 nM in series [1] (setting [4]) and 20 nM in series [2]. Moreover, the CC50 at 4 days in series [3] is > 25 µM.
For the compound `Cc1cc(NC(=O)c2cc(S(=O)(=O)NC3(CO)CC3)cn2C)ccc1F` [Compound 12, N-(4-fluoro-3-methyl-phenyl)-4-[[1-(hydroxymethyl)cyclopropyl]sulfamoyl]-1-methyl-pyrrole-2-carboxamide], the EC50 was determined as 120 nM in series [1] (setting [4]) and 60 nM in series [2]. For the same compound, in series [3], the 50% cytotoxic concentration (CC50) at 4 days was > 25 µM.
On to `Cc1cc(NC(=O)c2cc(S(=O)(=O)NC3CC(=O)N(C)C3)cn2C)ccc1F` (stereo not drawn) [Compound 13, N-(4-fluoro-3-methyl-phenyl)-1-methyl-4-[(1-methyl-5-oxo-pyrrolidin-3-yl)sulfamoyl]pyrrole-2-carboxamide], for which the EC50 in series [1] (setting [4]) is 460 nM; in series [2], 140 nM. Also, the cytotoxic concentration (CC50) at 4 days in series [3] was > 25 µM.
Taken in the same sequence, the figures for `Cc1cc(NC(=O)c2cc(S(=O)(=O)NC3(CCO)COC3)cn2C)ccc1F` [Compound 14, N-(4-fluoro-3-methyl-phenyl)-4-[[3-(2-hydroxyethyl)oxetan-3-yl]sulfamoyl]-1-methyl-pyrrole-2-carboxamide] were 40 nM, 20 nM and > 25 µM.
Consider `Cc1cc(NC(=O)c2cc(S(=O)(=O)N[C@H]3C[C@@H](O)C3)cn2C)ccc1F` [Compound 15, N-(4-fluoro-3-methyl-phenyl)-4-[(3-hydroxycyclobutyl)sulfamoyl]-1-methyl-pyrrole-2-carboxamide], for which the EC50 in series [1] (setting [4]) was 160 nM; in series [2], 130 nM. In addition, the CC50 at 4 days in series [3] was > 25 µM.
Turning to `Cc1cc(NC(=O)c2cc(S(=O)(=O)NC(C)(C)C)cn2C)ccc1F` [Compound 16, 4-(tert-butylsulfamoyl)-N-(4-fluoro-3-methyl-phenyl)-1-methyl-pyrrole-2-carboxamide], the EC50 in series [1] (setting [4]) was determined as 60 nM; in series [2] it was 30 nM. For the same compound, in series [3], the CC50 at 4 days is > 25 µM.
Consider `Cc1cc(NC(=O)c2cc(S(=O)(=O)NC3(CC#N)COC3)cn2C)ccc1F` [Compound 17, 4-[[3-(cyanomethyl)oxetan-3-yl]sulfamoyl]-N-(4-fluoro-3-methyl-phenyl)-1-methyl-pyrrole-2-carboxamide], for which the EC50 in series [1] (setting [4]) came to 30 nM; in series [2] it was 20 nM. Also, in series [3], the 50% cytotoxic concentration (CC50) at 4 days was > 25 µM.
For the compound `Cc1cc(NC(=O)c2cc(S(=O)(=O)NC3(CC#N)CC3)cn2C)ccc1F` [Compound 18, 4-[[1-(cyanomethyl)cyclopropyl]sulfamoyl]-N-(4-fluoro-3-methyl-phenyl)-1-methyl-pyrrole-2-carboxamide], the half-maximal effective concentration (EC50) was < 20 nM in series [1] (setting [4]) and 30 nM in series [2]. Also, the CC50 at 4 days in series [3] is > 25 µM.
As for `Cn1cc(S(=O)(=O)NC(C)(C)C)cc1C(=O)Nc1ccc(F)c(F)c1` [Compound 19, 4-(tert-butylsulfamoyl)-N-(3,4-difluorophenyl)-1-methyl-pyrrole-2-carboxamide], the EC50 in series [1] (setting [4]) came out at 60 nM; in series [2], 80 nM. Also, the CC50 at 4 days in series [3] was > 25 µM.
